From patent US6358538B1, “Method for protecting plants from fungus” (priority 1999, dated 2002) come the findings set out here.

The experiment deals with fungus.

The structures appear in SMILES notation.

Description: Various fertilizer quality nitrate salts have been used to test this effect, particularly potassium nitrate, ammonium nitrate, calcium nitrate, and sodium nitrate.

With `O=[N+]([O-])O` [nitrate ions, nitrate], the “concentration of nitrate ions in the solution found to be generally effective” value (at the sprinkler/mist head, plants in open ground plots, approx. 10 pounds nitrate salts per acre in approx. 1,000 gallons of water) is 700 parts per million of water. The “effect on germination of fungal spores and subsequent development” value (weak solutions, fungi on ground surface and plant surfaces, under certain conditions) is “fungistatic effect”.
